This note sets out measurements from ChEMBL document CHEMBL1909046, “DrugMatrix in vitro pharmacology data”.

A short description of data set [1]: DRUGMATRIX: Sodium/nucleoside co-transporter radioligand binding (ligand: nitrobenzylthioinosine). The data set is classed as cell membranes, Cavia porcellus, Dunkin-Hartley, Cerebral cortex, Membrane. Particulars: Not Active = under 50% inhibition at 10 µM.
In data set [2] the target is T1, Alpha-1A adrenergic receptor (Rattus norvegicus, UniProt P43140).
T1 sequence (P43140 whole entry): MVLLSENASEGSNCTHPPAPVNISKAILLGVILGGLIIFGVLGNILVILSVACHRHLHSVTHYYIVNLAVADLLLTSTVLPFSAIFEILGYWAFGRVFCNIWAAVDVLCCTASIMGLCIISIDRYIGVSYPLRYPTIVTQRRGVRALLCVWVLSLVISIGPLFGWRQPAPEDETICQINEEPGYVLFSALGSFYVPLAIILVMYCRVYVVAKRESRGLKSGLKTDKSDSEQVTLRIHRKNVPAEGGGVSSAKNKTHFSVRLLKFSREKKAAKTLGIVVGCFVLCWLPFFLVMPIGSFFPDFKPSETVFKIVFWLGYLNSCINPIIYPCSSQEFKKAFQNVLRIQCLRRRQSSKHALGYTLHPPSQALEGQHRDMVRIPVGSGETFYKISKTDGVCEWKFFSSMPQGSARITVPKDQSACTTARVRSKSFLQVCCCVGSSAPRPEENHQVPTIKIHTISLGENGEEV
The data set can be described thus: DRUGMATRIX: Alpha-1A adrenergic receptor radioligand binding (ligand: prazosin). The data set is classed as cell membranes, Wistar, Submaxillary gland, Membrane. Particulars: Not Active = under 50% inhibition at 10 µM.

Data set [3] addresses Aldo-keto reductase family 1 member B1 (Rattus norvegicus, UniProt P07943). The data set is classed as tissue-based, Lens of camera-type eye.
The nature of data set [4]: DRUGMATRIX: Sigma2 radioligand binding (ligand: [3H] Ifenprodil). In kind it is cell membranes, Rattus norvegicus, Wistar, Brain, Membrane. To be noted: Not Active = under 50% inhibition at 10 µM.
For data set [5], the target named is T2, Caspase-1 (Homo sapiens, UniProt P29466).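 Also: Caspase-1 enzyme inhibition assay with a peptide substrate; in other assays of this panel Not Active means under 50% inhibition at 10 µM.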
T2 sequence (P29466 whole entry): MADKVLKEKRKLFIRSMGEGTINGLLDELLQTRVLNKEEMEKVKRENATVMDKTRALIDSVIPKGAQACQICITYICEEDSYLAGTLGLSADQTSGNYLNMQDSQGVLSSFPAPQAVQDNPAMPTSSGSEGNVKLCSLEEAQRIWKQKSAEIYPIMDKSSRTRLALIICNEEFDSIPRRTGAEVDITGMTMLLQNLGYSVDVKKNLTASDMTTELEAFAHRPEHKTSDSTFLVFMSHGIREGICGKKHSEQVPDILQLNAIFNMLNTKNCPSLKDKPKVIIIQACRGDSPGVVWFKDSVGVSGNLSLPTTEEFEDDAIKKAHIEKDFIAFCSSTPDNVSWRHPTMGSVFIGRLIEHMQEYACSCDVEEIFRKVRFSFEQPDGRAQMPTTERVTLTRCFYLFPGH
The arrangement: species or system Escherichia coli.

Data set [6] deals with Mitogen-activated protein kinase 1 (Homo sapiens, UniProt P28482). The experiment in a line: DRUGMATRIX: Protein Serine/Threonine Kinase, ERK2 enzyme inhibition (substrate: Myelin Basic Protein). The arrangement: species or system Escherichia coli. Particulars: Not Active = under 50% inhibition at 10 µM.
Data set [7] deals with Cytochrome P450 3A4 (Homo sapiens, UniProt P08684). To be noted: bti-tn-5b1-4.

By pIC50 is commonly meant the IC50 on a negative log10 scale, so that one unit is a factor of ten. For orientation: pKi means −log10 of the Ki, conventionally taken in molar units.

pIC50, pKi: −log10 of the molar value.

Sequence of Cytochrome P450 3A4 (P08684 whole entry): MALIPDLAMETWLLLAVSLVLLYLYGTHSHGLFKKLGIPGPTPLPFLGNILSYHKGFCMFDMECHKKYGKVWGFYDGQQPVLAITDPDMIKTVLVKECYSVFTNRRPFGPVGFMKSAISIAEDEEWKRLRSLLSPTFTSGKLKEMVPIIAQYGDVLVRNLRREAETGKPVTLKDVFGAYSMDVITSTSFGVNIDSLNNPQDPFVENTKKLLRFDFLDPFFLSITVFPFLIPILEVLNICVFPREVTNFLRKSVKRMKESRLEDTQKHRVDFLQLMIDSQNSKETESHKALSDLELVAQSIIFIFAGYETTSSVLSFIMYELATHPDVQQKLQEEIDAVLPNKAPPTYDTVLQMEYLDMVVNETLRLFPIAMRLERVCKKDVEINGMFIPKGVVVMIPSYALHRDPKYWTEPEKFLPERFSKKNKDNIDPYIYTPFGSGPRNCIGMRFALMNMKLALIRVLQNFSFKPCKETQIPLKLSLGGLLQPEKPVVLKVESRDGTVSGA
Sequence of Mitogen-activated protein kinase 1 (P28482 whole entry): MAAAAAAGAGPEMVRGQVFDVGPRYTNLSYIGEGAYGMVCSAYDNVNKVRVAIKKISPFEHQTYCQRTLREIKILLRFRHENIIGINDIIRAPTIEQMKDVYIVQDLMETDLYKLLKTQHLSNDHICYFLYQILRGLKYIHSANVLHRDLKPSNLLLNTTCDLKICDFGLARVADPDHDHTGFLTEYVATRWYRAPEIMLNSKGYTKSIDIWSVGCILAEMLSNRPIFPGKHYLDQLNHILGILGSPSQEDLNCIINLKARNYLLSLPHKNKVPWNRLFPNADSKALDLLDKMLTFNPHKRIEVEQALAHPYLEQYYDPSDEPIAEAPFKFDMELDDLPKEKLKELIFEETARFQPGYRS

On to `CC[C@H]1CN2CCc3cc(OC)c(OC)cc3[C@@H]2C[C@@H]1C[C@H]1NCCc2cc(OC)c(OC)cc21` [EMETINE], for which the IC50 result in data set [1], in data set [3], in data set [4], in data set [5], in data set [6] and in data set [7] was “Not Active” in each case. Also, the Ki entry in data set [1], in data set [4] and in data set [7] was “Not Active” each time. Also, the pIC50 in data set [2] (read-out: IC50) is 5.19. For the same compound, the pKi in data set [2] (read-out: Ki) is 5.58.

Consider `C[C@@H](CO)NC(=O)[C@@H]1C=C2c3cccc4[nH]cc(c34)C[C@H]2N(C)C1` [ERGONOVINE], for which the IC50 result in data set [1], in data set [2], in data set [3], in data set [4], in data set [5] and in data set [6] was “Not Active” in each case. For the same compound, the IC50 result in data set [7] is recorded as “Not Active”. For the same compound, the Ki entry in data set [1], in data set [4] and in data set [7] was “Not Active” in each case.

In the case of `COC(=O)CCc1ccc(OCC(O)CNC(C)C)cc1` (stereo unspecified) [ESMOLOL], the IC50 result in data set [1], in data set [2], in data set [3], in data set [4], in data set [5] and in data set [6] was “Not Active” each time. For the same compound, the IC50 entry in data set [7] was “Not Active”. The Ki result in data set [1], in data set [4] and in data set [7] was “Not Active” in each case.

Regarding `CCC1(C)CC(=O)NC1=O` (stereo unspecified) [ETHOSUXIMIDE], the IC50 result in data set [1], in data set [2], in data set [3], in data set [4], in data set [5] and in data set [6] was “Not Active” in each case. Also, the IC50 result in data set [7] is given as “Not Active”. The Ki result in data set [1], in data set [4] and in data set [7] was “Not Active” in each case.

Take `C#C[C@]1(OC(C)=O)CC[C@H]2[C@@H]3CCC4=C[C@@H](OC(C)=O)CC[C@@H]4[C@H]3CC[C@@]21C` [ETHYNODIOL DIACETATE]: the IC50 entry in data set [1], in data set [2], in data set [3], in data set [4], in data set [5] and in data set [6] was “Not Active” throughout. Also, the IC50 result in data set [7] is listed as “Not Active”. Besides, the Ki entry in data set [1], in data set [4] and in data set [7] was “Not Active” throughout.

As for `C=CCc1ccc(O)c(OC)c1` [EUGENOL], the IC50 entry in data set [1], in data set [2], in data set [3], in data set [4], in data set [5] and in data set [6] was “Not Active” throughout. In data set [7], the IC50 result was “Not Active”. Moreover, the Ki entry in data set [1], in data set [4] and in data set [7] was “Not Active” throughout.

For the compound `CC(C(=O)O)c1cccc(Oc2ccccc2)c1` (stereo unspecified) [FENOPROFEN], the IC50 entry in data set [1], in data set [2], in data set [3], in data set [4], in data set [5] and in data set [6] was “Not Active” each time. For the same compound, the IC50 entry in data set [7] is on record as “Not Active”. Besides, the Ki entry in data set [1], in data set [4] and in data set [7] was “Not Active” in each case.

For `CC(C)(C)NC(=O)[C@H]1CC[C@H]2[C@@H]3CC[C@H]4NC(=O)C=C[C@]4(C)[C@H]3CC[C@]12C` [FINASTERIDE], the IC50 result in data set [1], in data set [2], in data set [3], in data set [4], in data set [5] and in data set [6] was “Not Active” each time. Moreover, the IC50 result in data set [7] was “Not Active”. Moreover, the Ki entry in data set [1], in data set [4] and in data set [7] was “Not Active” each time.
